Legend:
[1] = design: method as in PMID 10639165; details: cited from earlier work
[2] = system: endometrial cancer; design: method as in https://clinicaltrials.gov; details: phase III, ref https://clinicaltrials.gov; cited from earlier work
[3] = system: EBC-1 cells; test: Cellular uptake in EBC-1 cells by flow cytometry; format: cell-based; details: 0.1, 1, 10 µM; 2, 6, 24, 72 h
Protocol: 2 × 10^4 EBC-1 cells per well were seeded onto 24 well plates (VWR) and allowed to adhere for 48 h. Cells were treated with [D-Lys^6(FITC)]–GnRH-I in complemented EMEM (Lonza) at 0.1, 1, and 10 µM, and incubated in a humidified, 5% CO2 atmosphere incubator for 2, 6, 24, and 72 h at 37 °C.
After incubation, supernatant was discarded and the cells were washed twice with PBS (Lonza). Trypsin (Thermo Fisher Scientific, cat. no.: 25300062) was added for 10 min at 37 °C. Cells were pelleted (250× g, 4 min, 4 °C) in flow cytometry tubes, resuspended in 300 µL PBS and kept at 4 °C for the rest of the experiment. The fluorescence intensity of the conjugate-stained cells was analysed using a FACS Calibur flow cytometer (BD Biosciences, San Jose, CA) using channel FL1. Data were evaluated by CellQuest Pro software (BD Biosciences). The relative median fluorescent intensity (MFI) values (based on DMSO control) were calculated.
Calculation formula: relative MFI compound;xh;yµM=MFI compound;xh;yµM/MFI DMSO control;xh • x time (h) • y concentration (µM)

[4] = system: EBC-1 cells; test: Colocalization with lysosomes in EBC-1 cells by confocal microscopy; format: cell-based; details: 10 µM, 24 h
Protocol: EBC-1 cells were seeded in eight well Ibidi® μ-Slide microscopic slides (2 × 10^4 cells/well) and allowed to adhere for 48 h. Cells were then treated with 10 µM [D-Lys^6(FITC)]–GnRH-I in complemented EMEM (Lonza) and incubated in a humidified, 5% CO2 atmosphere incubator for 24 h at 37 °C.
To investigate colocalization of [D-Lys^6(FITC)]–GnRH-I with lysosomes (in Figure 6), after [D-Lys^6(FITC)]–GnRH-I treatment (24 h, 10 µM), Lysoview 633 dye was added to the treating medium and the cells were incubated for a further 1 h. After incubation, cells were washed twice with EMEM. Images of the living cells were acquired with a Zeiss Confocal LSM 710 microscope [Objective: Plan-Apochromat 63×/1.40 Oil DIC M27. Pinhole: 1.95 AU. Laser wavelength: 488 nm and 633 nm. Detection wavelength: 496–573 nm; 633–693 nm)].

Row | Compound | half-life in human serum [1] | clinical outcome compared to doxorubicin [2] | cellular uptake [3] | colocalization with lysosome marker Lysoview 633 [4]
1 | zoptarelin doxorubicin | approximately 2 h | could neither extend overall survival, nor improve the safety profile | – | –
2 | CC(C)C[C@H](NC(=O)[C@@H](CCCCNC(=S)Nc1ccc2c(c1)C(=O)OC21c2ccc(O)cc2Oc2cc(O)ccc21)NC(=O)[C@H](Cc1ccc(O)cc1)NC(=O)[C@H](CO)NC(=O)[C@H](Cc1c[nH]c2ccccc12)NC(=O)[C@H](Cc1c[nH]cn1)NC(=O)[C@@H]1CCC(=O)N1)C(=O)N[C@@H](CCCNC(=N)N)C(=O)N1CCC[C@H]1C(=O)NCC(N)=O [[D-Lys^6(FITC)]–GnRH-I] | – | – | concentration-dependent dynamic uptake | highly correlated

From publication PMC6888004 (International Journal of Molecular Sciences, 2019)
